Data reported in US20240269128A1, “COMPOUNDS FOR TREATING OR PREVENTING ALZHEIMER'S DISEASE” (THE UNITED STATES OF AMERICA, as represented by the …, priority 2021, published 2024).

Experiments:
[1] = tested on: murine microglial cell line BV-2; assay: LPS-induced neuroinflammation in BV-2 microglial cells (cytokines by MSD V-PLEX, MTT); format: cell-based, mouse
Description: Lipopolysaccharide (LPS)-Induced Neuroinflammation: The murine microglial cell line BV-2 was cultivated in DMEM medium supplemented with 10% FCS, 1% penicillin/streptomycin and 2 mM L-glutamine (culture medium). For LPS stimulation assay, 5000 BV-2 cells per well (uncoated 96 well plates) were plated out and the medium was changed to treatment medium (DMEM, 5% FCS, 2 mM L-glutamine). After changing cells to treatment medium, drug compounds were administered 1 hour before LPS stimulation (Sigma-Aldrich; L6529; 1 mg/ml stock in ddH2O, final concentration in well: 100 ng/ml (dilutions in medium)). Cells treated with vehicle, cells treated with LPS alone, as well as cells treated with LPS plus reference item (dexamethasone 10 μM, Sigma D4902) served as controls. After 24 h of stimulation, cell supernatants were collected for the cytokine measurement (V-PLEX Proinflammatory Panel 1 Mouse Kit, K15048D, Mesoscale) and cells were subjected to MTT assay.
MTT Assay: MTT solution was added to each well in a final concentration of 0.5 mg/mL. After 2 h, the MTT containing medium was aspirated. Cells were lysed in 3% SDS and the formazan crystals were dissolved in isopropanol/HCl. Optical density was measured with a Cytation 5 (Biotek) multimode reader at wavelength 570 nm. Values were calculated as percent of control values (vehicle control or lesion control).
After changing cells to treatment medium, HCQ (0.25 μM, 2.5 μM and 25 μM) was applied 1 hour before LPS stimulation (Sigma-Aldrich; L6529; 1 mg/ml stock in ddH2O, final concentration in well: 100 ng/ml (dilutions in medium)).

[2] = tested on: SH-SY5Y-hTau441(V337M/R406W) cells; assay: Tau phosphorylation assay (Phospho(Thr231)/Total Tau); format: cell-based, human
Description: Tau Phosphorylation: SH-SY5Y-hTau441(V337M/R406W) cells were maintained in culture medium (DMEM medium, 10% FCS, 1% NEAA, 1% L-Glutamine, 100 g/mL Gentamycin, 300 μg/mL Geneticin G-418) and differentiated with 10 μM retinoic acid (RA) for 5 days changing medium every 2 to 3 days. Prior to the treatment, cells were seeded onto 24-well plates at a cell density of 2×10^5 cells per well (DIV1). Drug compounds were applied on DIV2. After 24 h of incubation (DIV3), cells on 24-well plates were harvested in 60 μL RIPA-Buffer [50 mM Tris pH 7.4, 1% Nonidet P40, 0.25% Na-deoxy-cholate, 150 mM NaCl, 1 mM EDTA supplemented with freshly added 1 μM NaF, 0.2 mM Na-ortho-vanadate, 80 μM Glycerophosphate, protease (Calbiochem) and phosphatase (Sigma) inhibitor cocktail]. Protein concentration was determined by BCA assay (Pierce, ThermoFisher) and samples were adjusted to a uniform total protein concentration. Total Tau and phosphorylated Tau were determined by immunosorbent assay from Mesoscale Discovery (Phospho(Thr231)/Total Tau Kit K15121D, Mesoscale Discovery).
Tau phosphorylation: SH-SY5Y-hTau441(V337M/R406W) cells were maintained in culture medium (DMEM medium, 10% FCS, 1% NEAA, 1% L-Glutamine, 100 μg/mL Gentamycin, 300 μg/mL Geneticin G-418) and differentiated with 10 μM retinoic acid (RA) for 5 days changing medium every 2 to 3 days. Prior to the treatment, cells were seeded onto 24-well plates at a cell density of 2×10^5 cells per well (DIV1). HCQ (25 μM) was applied on DIV2. After 24 h of incubation (DIV3), cells on 24-well plates were harvested in 60 μL RIPA-Buffer [50 mM Tris pH 7.4, 1% Nonidet P40, 0.25% Na-deoxy-cholate, 150 mM NaCl, 1 mM EDTA supplemented with freshly added 1 μM NaF, 0.2 mM Na-ortho-vanadate, 80 μM Glycerophosphate, protease (Calbiochem) and phosphatase (Sigma) inhibitor cocktail]. Protein concentration was determined by BCA assay (Pierce, ThermoFisher) and samples were adjusted to a uniform total protein concentration. Total Tau and phosphorylated Tau were determined by immunosorbent assay from Mesoscale Discovery (Phospho(Thr231)/Total Tau Kit K15121D, Mesoscale Discovery).
Tau Phosphorylation: SH-SY5Y-hTau441(V337M/R406W) cells were maintained in culture medium [DMEM medium, 10% FCS, 1% nonessential amino acids (NEAA), 1% l-glutamine, gentamycin (100 μg/ml), and geneticin G-418 (300 μg/ml)] and differentiated with 10 μM retinoic acid for 5 days changing medium every 2 to 3 days. […] Protein concentration was determined by BCA assay (Pierce, Thermo Fisher Scientific, Waltham, MA), and samples were adjusted to a uniform total protein concentration. Total tau and phosphorylated tau were determined by immunosorbent assay from Mesoscale Discovery [Phospho(Thr231)/Total Tau Kit K15121D, Mesoscale Discovery, Meso Scale Diagnostics]. […]

H4-hAPP cells = assay: Aβ secretion assay; format: cell-based, human
Description: (§1) Aβ Secretion: H4-hAPP cells were cultivated in Opti-MEM supplemented with 10% FCS, 1% penicillin/streptomycin 200 μg/mL Hygromycin B and 2.5 μg/mL Blasticidin S. H4-hAPP cells were seeded into 96 well plates (2×10^4 cells per well). On the next day, cells in 96 well plates were treated with compounds, R.I. (DAPT 400 nM) or vehicle. 24 h later, supernatants were collected for further Aβ measurements by MSD® (V-PLEX Aβ Peptide Panel 1 (6E10) Kit, K15200E, Mesoscale Discovery).
as §1, with “secretion: Human APP overexpressing” for “Secretion:”, “HCQ (0.25 μM, 2.5 μM and 25 μM) or the reference item” for “with compounds, R.I.”, “nM), a γ-secretase inhibitor” for “nM) or”
(§2) Cultivation and treatment of H4-hAPP cells: H4-hAPP cells were thawed and cultivated in Opti-MEM supplemented with 10% FCS, 1% penicillin/streptomycin 200 μg/ml Hygromycin B and 2.5 μg/ml Blasticidin S (=culture medium). H4-hAPP cells were seeded into 96 well plates (2×10^4 cells per well). On the next day, cells in 96 well plates were treated with TUDCA (100 μM (C1), 10 μM (C2), or 1.0 μM (C3)), R.I. (DAPT 400 nM) or vehicle. Alternatively, cells in 96 well plates were treated with 25 μM HCQ/0.1 μM TUDCA (C1), 2.5 μM HCQ/100 μM TUDCA (C2), and 2.5 μM HCQ/10 μM TUDCA (C3). 24 h later, supernatants were collected for further Aβ measurements by MSD. The experiment was performed in n=6 technical replicates for all groups.
(§3) Aβ38, 40, 42 measurement: Supernatants were diluted 1:10 and analyzed for human Aβ38, 40, and 42 with MSD® 96-well MULTI-SPOT® 6E10 Abeta Triplex Assay (Mesoscale Discovery, Rockville, MD). The immune assay was carried out according to the manual and plates are read on the MESO QuickPlex SQ 120 multiplexing instrument. Analyte levels were evaluated according to adequate Aβ peptide standards (MSD) as pg per mL.
Aβ Secretion: H4-hAPP cells were cultivated in Opti-MEM supplemented with 10% FCS, 1% penicillin/streptomycin, hygromycin B (200 μg/ml), and blasticidin S (2.5 μg/ml). H4-hAPP cells were seeded into 96-well plates (2×10^4 cells per well). On the next day, cells in 96-well plates were treated with compounds, reference item [400 nM N-[N-(3,5-difluorophenacetyl-1-alanyl)]-S-phenylglycine t-butyl ester (DAPT)], or vehicle. Twenty-four hours later, supernatants were collected for further Aβ measurements by MSD [V-PLEX Aβ Peptide Panel 1 (6E10) Kit, K15200E, Mesoscale Discovery].
as §2, with “Culture” for “Cultivation”, “T.I.,” for “TUDCA (100 μM (C1), 10 μM (C2), or 1.0 μM (C3)),”, “vehicle.” for “vehicle. Alternatively, cells in 96 well plates were treated with 25 μM HCQ/0.1 μM TUDCA (C1), 2.5 μM HCQ/100 μM TUDCA (C2), and 2.5 μM HCQ/10 μM TUDCA (C3).”
as §3, with “measurement in H4-hAPP cells:” for “measurement:”, “Discovery).” for “Discovery, Rockville, MD).”, “were” for “are”, “120.” for “120 multiplexing instrument.”

[3] = tested on: hippocampal CA1 synapses of APP/PS1 mice; assay: Late long-term potentiation, field recordings in hippocampal slices; design: species or system mouse; conditions: for S1 fEPSP slope at the end of the experiment / potentiation of S1 fEPSP slope after STET: APP/PS1 slices
[4] = tested on: hippocampal neuronal cells; conditions: Lee et al. 2019; cited from earlier work
iPSCs = assay: LPS induced neuroinflammation (iPSCs); format: cell-based; conditions: posterior probability of a protective effect
Description: Cell-based assays: For each combination of drugs and assay, the posterior probability P(Hi|data) of protective, neutral, and adverse drug effect (formal hypotheses H1, H0, H2, respectively) were evaluated. Dose-response relationships (x-y data) were modeled with a Bayesian nonlinear regression model:
and Bayesian estimation of the posterior density of the fold change was performed using default settings of the Markov chain Monte Carlo samples implemented by the PyMC python library. For efficient sample, each bioactivity data set was standardized such that […] corresponded to one standard deviation. Diagnostic criteria (posterior sample of fitted curves, effective sample sizes, values of the r statistic, and Markov chain standard errors) were inspected for the fit and three poorly fitted data sets out of a total of 91 data sets were excluded.

[5] = tested on: hippocampal cell cultures; conditions: Rzemieniec et al. 2019; cited from earlier work
BV-2 cells = assay: Aβ1-42 clearance assay; format: cell-based, mouse; conditions: posterior probability of a protective effect, Bayesian dose-response model
Description: AB Clearance: For the amyloid beta (Aβ) clearance assay, 20000 BV-2 cells per well (uncoated 96 well plates) were plated out. After changing cells to treatment medium, drug compounds were administered 1 hour before Aβ stimulation (Bachem 4061966; final concentration in well: 200 ng/ml (dilutions in medium)). Cells treated with vehicle and cells treated with Aβ alone served as controls. After 3 h of Aβ stimulation, cell supernatants were collected for the Aβ measurement and cells were carefully washed twice with PBS and thereafter lysed in 35 μL cell lysis buffer (50 mM Tris-HCl, pH 7.4, 150 mM NaCl, 5 mM EDTA, 1% SDS) supplemented with protease inhibitors. Supernatants and cell lysates were analyzed for human Aβ42 with MSD® V-PLEX Human Aβ42 Peptide (6E10) Kit (K151LBE, Mesoscale Discovery). The immune assay was carried out according to the manual and plates were read on the MESO QuickPlex SQ 120.
Aβ1-42 clearance: For Abeta (Aβ1-42) clearance assay, 20,000 BV-2 cells per well (uncoated 96 well plates) were plated out. After changing cells to treatment medium, HCQ (0.25 μM, 2.5 μM and 25 μM) was applied 1 hour before Aβ1-42 stimulation (Bachem 4061966; final concentration in well: 200 ng/ml (dilutions in medium)). Cells treated with vehicle (0.1% DMSO) and cells treated with Aβ1-42 alone served as controls. After 3 h of Aβ1-42 stimulation, cell supernatants were collected for the Aβ1-42 measurement and cells were carefully washed twice with PBS and thereafter lysed in 35 μL cell lysis buffer (50 mM Tris-HCl, pH 7.4, 150 mM NaCl, 5 mM EDTA, 1% SDS) supplemented with protease inhibitors. Supernatants and cell lysates were analyzed for human Aβ1-42 with MSD® V-PLEX Human Aβ42 Peptide (6E10) Kit (K151LBE, Mesoscale Discovery). The immune assay was carried out according to the manufacturer's manual and plates were read on the MESO QuickPlex SQ 120.
Aβ Clearance: 20,000 BV2 cells per well (uncoated 96-well plates were plated out. After changing cells to treatment medium, drug compounds were administered 1 hour before Aβ stimulation (final concentration in well 200 ng/ml; dilutions in medium). Cells treated with vehicle and cells treated with Aβ alone served as controls. After 3 hours of Aβ stimulation, cell supernatants were collected for the Aβ measurement and cells were carefully washed twice with PBS and thereafter lysed in 35 μl of cell lysis buffer (50 mM tris-HCl, pH 7.4, 150 mM NaCl, 5 mM EDTA, and 1% SDS) supplemented with protease inhibitors. Supernatants and cell lysates were analyzed for human Aβ42 with the MSD V-PLEX Human Aβ42 Peptide (6E10) Kit (K151LBE, Mesoscale Discovery). The immune assay was carried out according to the manual, and plates were read on MESO QuickPlex SQ 120 (Meso Scale Diagnostics, Rockville, MD).
For Aβ clearance assay, 20,000 BV-2 cells per well (uncoated 96 well plates) were plated out. After 24 hours, medium was changed to treatment medium (DMEM, 5% FCS, 2 mM L-glutamine) and cells were maintained in treatment medium for the remaining culture period. After changing cells to treatment medium, the test items were administered 1 hour before Aβ stimulation (Bachem 4061966; final concentration in well: 200 ng/mL (dilutions in medium)). Cells treated with vehicle, cells treated with Aβ alone, as well as wells with Aβ but no cells served as controls. All wells were handled the same way. After 3 h of Aβ stimulation, cell supernatants were collected for the Aβ measurement and cells were carefully washed twice with PBS and thereafter lysed in 35 μl cell lysis buffer (50 mM Tris-HCl, pH 7.4, 150 mM NaCl, 5 mM EDTA, 1% SDS) supplemented with protease inhibitors. Cells were incubated for 15 min at RT on a plate shaker, samples were frozen at −80° C. until further use. The experiment was performed in n=6 technical replicates for all groups. […]

COc1ccc(S(=O)(=O)Nc2cc(-c3c(O)ccc4ccccc34)c(O)c3ccccc23)cc1 [C188-9, N-[4-hydroxy-3-(2-hydroxynaphthalen-1-yl)naphthalen-1-yl]-4-methoxybenzenesulfonamide]
release of IL-1β ([1]; 0.3 μM and 0.6 μM, relative to LPS): significantly reduced | release of IL-6 ([1]; 0.6 μM, 24 h LPS stimulation, relative to LPS): significantly reduced | cell viability ([1]; C188-9 in LPS assay, results not shown): no adverse effects on cell viability | phosphorylated tau 231 (ptau) ([2]; 10 μM, 24 h, relative to VC): significantly reduced | Aβ42: Aβ40 ratio (H4-hAPP cells; 1 μM, relative to VC): significantly reduced | endogenous Aβ1-42 (H4-hAPP cells; 1 μM, relative to VC): significantly reduced | cell viability (H4-hAPP cells; C188-9 in Aβ secretion assay, results not shown): no adverse effects on cell viability

CCN(CCO)CCCC(C)Nc1ccnc2cc(Cl)ccc12 (racemic) [HCQ racemic free base]
late-LTP in APP/PS1 mice ([3]; 25 μM HCQ racemic free base): partial rescue | late-LTP in APP/PS1 mice ([3]; 50 μM HCQ racemic free base): diminished initial potentiation which did not last | late LTP in age-matched WT mice ([3]; 50 μM HCQ racemic free base, preliminary (n=1)): partially impaired | S1 fEPSP slope at the end of the experiment ([3]; 25 μM HCQ racemic free base): 118.003±7.753% | potentiation of S1 fEPSP slope after STET ([3]; 25 μM HCQ racemic free base): 155.545±12.309% | S1 fEPSP slope at the end of the experiment ([3]; 50 μM HCQ racemic free base): 119.117±8.167% | potentiation of S1 fEPSP slope after STET ([3]; 50 μM HCQ racemic free base): 128.809±8.116%

Cc1c[nH]c(-c2cnc(NCCNc3ccc(C#N)cn3)nc2-c2ccc(Cl)cc2Cl)n1 [CHIR]
phosphorylated Tau ([2]; reference item, compared to vehicle control): significantly reduced

C[C@H](NC(=O)Cc1cc(F)cc(F)c1)C(=O)N[C@H](C(=O)OC(C)(C)C)c1ccccc1 [DAPT, N-[N-(3,5-difluorophenacetyl-1-alanyl)]-S-phenylglycine t-butyl ester]
Aβ species (Aβ1-38, 1-40 and 1-42) in supernatant (H4-hAPP cells; reference item, 400 nM, 24 h): significantly reduced all tested species

c1ccc2c(Cc3c[nH]c4ccccc34)c[nH]c2c1 [DIM, 3,3′-diindolylmethane]
oxidative stress-induced apoptosis [4]: inhibit | effect in LPS induced neuroinflammation (BV2 cells) ([1]; posterior probability of a protective effect): protective | LTP in APP/PS1 slices ([3]; 10 μM DIM, acute application): rescues LTP | late LTP in APP/PS1 slices ([3]; 3-hour pre-incubation with 10 μM DIM): no longer results in rescue | effect in LPS induced neuroinflammation (iPSCs) (iPSCs): strongly protective | ischemia-induced apoptosis and autophagy [5]: protect | effect in Aβ clearance (BV2 cells) (BV-2 cells): strongly protective
